According to ChEMBL document CHEMBL1201862, “PubChem BioAssay data set” (2004):
The source made the active and inactive calls.

How the values were obtained:
[1] = system: Vero; experiment: viability of Vero cells under compound – cytotoxicity control for flavivirus capping enzyme inhibitors (AID 588742); type: functional; settings: Chlorocebus sabaeus
[2] = system: P388/ADR; experiment: cells; type: functional; settings: Mus musculus
[3] = system: SN12K1; experiment: cells; type: functional; settings: Homo sapiens
[4] = system: P388; experiment: cells; type: functional; settings: Mus musculus
[5] = HIV-1 AD8 envelope cell-cell fusion blockers – cherry-pick, dose response (AID 652062); type: functional, cell-based;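 note: luciferase signal from cell-cell fusion driven by HIV-1 clade B AD8 Env; potency is for inhibitors of fusion seen as a drop in luminescence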
[6] = blockers of HIV-1 envelope-mediated cell-cell fusion – cherry-pick, dose response (AID 652057); type: functional, cell-based
[7] = blockers of HIV-1 ZM109 envelope-driven cell-cell fusion – HeLa effector, CEM target cells, luciferase, cherry-pick, dose response (AID 652058); type: functional, cell-based;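 note: luciferase signal from HIV-1 Env mediated cell-cell fusion of effector and target cells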
[8] = off-target signal loss in HeLa-CEM21 co-culture – HeLa F-luc CTL cells, cherry-picked, counter-screen for HIV-1 Env fusion inhibitor project, dose response (AID 652040); type: functional, cell-based;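 note: potency for signal decrease marking cytotoxic or nonspecific inhibition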
[9] = biological target: T1, Protein skinhead-1 (Caenorhabditis elegans, UniProt P34707); type: functional
T1 sequence (P34707 whole entry): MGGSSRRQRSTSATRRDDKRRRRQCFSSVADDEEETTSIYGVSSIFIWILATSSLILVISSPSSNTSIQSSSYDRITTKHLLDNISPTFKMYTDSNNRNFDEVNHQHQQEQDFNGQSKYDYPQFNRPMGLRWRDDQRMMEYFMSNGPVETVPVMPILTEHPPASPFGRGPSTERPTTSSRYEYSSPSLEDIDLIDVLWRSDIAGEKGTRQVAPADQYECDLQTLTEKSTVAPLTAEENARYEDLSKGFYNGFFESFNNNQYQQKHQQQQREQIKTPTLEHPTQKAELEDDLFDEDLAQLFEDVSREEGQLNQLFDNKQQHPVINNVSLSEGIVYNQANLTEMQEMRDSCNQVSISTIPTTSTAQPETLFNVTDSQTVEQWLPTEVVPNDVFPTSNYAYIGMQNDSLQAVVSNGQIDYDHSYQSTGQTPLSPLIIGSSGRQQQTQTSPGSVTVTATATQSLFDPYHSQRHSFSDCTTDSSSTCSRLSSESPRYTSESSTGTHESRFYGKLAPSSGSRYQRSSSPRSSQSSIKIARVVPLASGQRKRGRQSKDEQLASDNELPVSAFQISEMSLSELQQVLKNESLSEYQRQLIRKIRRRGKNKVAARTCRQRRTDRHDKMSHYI

[10] = non-specific 3'UTR reporter inhibition in Clone20-Shn3RL – cell-based, Renilla luciferase, cherry-picked, counter-screen for Shn3 inhibitor project, dose response (AID 624133); type: functional
[11] = loss of viability in HepG2 cells – cell-based, CellTiter-Glo, cherry-picked, cytotoxicity control for Shn3 inhibitor project, dose response (AID 624134); type: functional
[12] = reduction of Shn3 3'UTR-driven luciferase in osteoblasts – cell-based, Clone20 osteoblasts, firefly luciferase, cherry-picked, dose response (AID 624132); type: functional;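 note: firefly luciferase luminescence from reporter carrying the Shn3 3'UTR in osteoblasts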
[13] = biological target: Protein Wnt-3a (Mus musculus, UniProt P27467); experiment: antagonism of Wnt3a pathway luciferase reporter – Wnt-LIGHT cells, luminescence, selectivity assay for Gli-SUFU antagonist project, dose response (AID 651570); type: functional; settings: read-out: IC50_Mean;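 note: Wnt-LIGHT reporter cells stimulated with conditioned medium from Wnt3a-producing cells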
Protein Wnt-3a, sequence (P27467 whole entry): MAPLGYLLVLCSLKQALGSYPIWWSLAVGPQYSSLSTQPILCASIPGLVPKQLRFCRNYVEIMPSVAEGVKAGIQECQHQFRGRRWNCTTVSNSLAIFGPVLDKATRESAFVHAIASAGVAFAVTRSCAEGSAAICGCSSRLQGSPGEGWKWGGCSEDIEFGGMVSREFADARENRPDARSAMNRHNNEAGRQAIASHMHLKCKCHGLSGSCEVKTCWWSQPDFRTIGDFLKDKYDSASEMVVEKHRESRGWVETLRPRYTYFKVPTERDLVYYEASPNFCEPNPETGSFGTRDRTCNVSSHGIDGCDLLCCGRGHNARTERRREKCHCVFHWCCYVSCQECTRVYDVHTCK

[14] = biological target: T2, Fatty acid synthase (Homo sapiens, UniProt P49327); experiment: inhibition of human FAS-TE enzyme activity – biochemical, endpoint fluorescence intensity, uHTS hits, dose response (AID 624327); type: functional;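 note: fluorescence from hydrolysis of an O-methyl fluorescein acyl ester substrate by the enzyme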
T2 sequence (P49327 whole entry): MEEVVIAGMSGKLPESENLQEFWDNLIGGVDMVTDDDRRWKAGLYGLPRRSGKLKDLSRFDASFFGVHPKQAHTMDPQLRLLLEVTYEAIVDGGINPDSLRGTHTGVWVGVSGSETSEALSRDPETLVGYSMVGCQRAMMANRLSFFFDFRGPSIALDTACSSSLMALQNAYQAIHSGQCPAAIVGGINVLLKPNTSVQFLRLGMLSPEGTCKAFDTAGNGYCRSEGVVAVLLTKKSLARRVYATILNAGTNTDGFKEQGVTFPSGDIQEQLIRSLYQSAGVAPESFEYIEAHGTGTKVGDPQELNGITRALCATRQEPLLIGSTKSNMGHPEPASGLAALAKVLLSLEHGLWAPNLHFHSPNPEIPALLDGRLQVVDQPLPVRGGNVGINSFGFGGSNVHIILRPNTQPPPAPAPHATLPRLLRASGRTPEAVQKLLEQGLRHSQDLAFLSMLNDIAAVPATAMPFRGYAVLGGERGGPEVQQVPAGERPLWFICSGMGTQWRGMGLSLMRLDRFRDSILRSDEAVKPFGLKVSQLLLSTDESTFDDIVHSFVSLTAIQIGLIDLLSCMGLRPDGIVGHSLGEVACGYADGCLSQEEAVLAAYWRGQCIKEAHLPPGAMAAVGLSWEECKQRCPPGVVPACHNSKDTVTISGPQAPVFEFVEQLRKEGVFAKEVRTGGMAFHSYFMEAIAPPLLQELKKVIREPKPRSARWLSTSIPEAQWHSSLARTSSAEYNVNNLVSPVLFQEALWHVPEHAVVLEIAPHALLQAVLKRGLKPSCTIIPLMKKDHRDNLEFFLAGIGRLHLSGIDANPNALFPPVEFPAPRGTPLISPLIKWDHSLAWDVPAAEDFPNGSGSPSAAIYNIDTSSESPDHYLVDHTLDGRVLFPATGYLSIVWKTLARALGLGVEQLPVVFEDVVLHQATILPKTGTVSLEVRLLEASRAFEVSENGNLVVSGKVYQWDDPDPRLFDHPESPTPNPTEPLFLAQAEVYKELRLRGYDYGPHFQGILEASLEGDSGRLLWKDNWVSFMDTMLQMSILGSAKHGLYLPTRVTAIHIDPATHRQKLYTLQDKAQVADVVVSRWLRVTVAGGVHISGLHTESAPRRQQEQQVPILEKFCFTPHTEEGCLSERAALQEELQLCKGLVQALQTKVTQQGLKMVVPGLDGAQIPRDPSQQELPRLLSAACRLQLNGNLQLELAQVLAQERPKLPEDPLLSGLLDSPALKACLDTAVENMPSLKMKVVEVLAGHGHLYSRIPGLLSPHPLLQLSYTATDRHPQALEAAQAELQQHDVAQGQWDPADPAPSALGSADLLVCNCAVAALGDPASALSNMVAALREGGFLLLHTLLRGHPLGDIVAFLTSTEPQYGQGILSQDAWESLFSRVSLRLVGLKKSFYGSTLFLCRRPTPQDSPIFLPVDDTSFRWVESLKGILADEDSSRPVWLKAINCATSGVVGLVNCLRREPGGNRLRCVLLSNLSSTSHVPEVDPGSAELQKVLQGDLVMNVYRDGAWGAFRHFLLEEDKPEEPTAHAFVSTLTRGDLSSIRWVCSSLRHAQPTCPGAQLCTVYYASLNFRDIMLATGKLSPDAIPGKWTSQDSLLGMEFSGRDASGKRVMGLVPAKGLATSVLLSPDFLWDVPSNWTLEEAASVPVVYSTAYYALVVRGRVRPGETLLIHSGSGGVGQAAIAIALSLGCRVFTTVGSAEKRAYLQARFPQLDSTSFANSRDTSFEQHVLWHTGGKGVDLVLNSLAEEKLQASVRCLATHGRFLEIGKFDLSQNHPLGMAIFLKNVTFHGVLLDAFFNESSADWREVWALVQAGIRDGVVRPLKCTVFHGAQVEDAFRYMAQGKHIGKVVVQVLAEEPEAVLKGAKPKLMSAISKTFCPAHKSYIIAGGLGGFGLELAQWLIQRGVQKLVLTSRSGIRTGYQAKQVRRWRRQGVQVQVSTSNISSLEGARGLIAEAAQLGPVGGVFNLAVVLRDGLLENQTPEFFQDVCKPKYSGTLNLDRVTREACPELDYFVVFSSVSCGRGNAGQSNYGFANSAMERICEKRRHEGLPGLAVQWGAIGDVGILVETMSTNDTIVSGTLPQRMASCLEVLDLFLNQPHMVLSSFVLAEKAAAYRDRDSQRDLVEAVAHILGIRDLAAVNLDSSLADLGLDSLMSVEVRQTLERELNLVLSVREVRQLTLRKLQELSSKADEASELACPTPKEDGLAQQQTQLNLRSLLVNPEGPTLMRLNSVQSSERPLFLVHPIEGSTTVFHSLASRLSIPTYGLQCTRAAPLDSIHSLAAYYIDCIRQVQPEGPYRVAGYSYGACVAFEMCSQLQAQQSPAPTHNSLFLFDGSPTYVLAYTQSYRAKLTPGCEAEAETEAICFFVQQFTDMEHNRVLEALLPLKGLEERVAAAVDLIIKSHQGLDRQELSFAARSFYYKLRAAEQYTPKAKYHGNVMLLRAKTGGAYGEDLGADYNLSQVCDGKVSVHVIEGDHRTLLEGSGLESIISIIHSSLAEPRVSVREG

[15] = biological target: T2, Fatty acid synthase; experiment: inhibition of human FAS-TE enzyme activity – biochemical, kinetic fluorescence intensity, dose response (AID 624326); type: functional;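 note: rate of fluorescence rise from hydrolysis of a fluorogenic O-methyl fluorescein ester substrate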
[16] = HEK-293T viability loss after treatment – luminescence, T-cell screen hits, cytotoxicity control for TCR NF-kB inhibitor project, dose response (AID 489026); type: functional, cell-based;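 note: cells exposed to compound about 14 hours before the viability readout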

Q: With `Cc1ccc(/C=C/c2nc3ccccc3[nH]2)o1` as the molecule, how does the CC50 [1] read?
A: Its CC50 is > 40 µM (active).

Q: What does the source list for `O=NN(CCCl)C(=O)N[C@H]1CC[C@H](CC(=O)O)CC1`?
A: GI50 [2]: 3.97 µM (inactive); GI50 [3]: 69 µM (inactive); GI50 [4]: 3.73 µM (inactive)

Q: What does the source list for `CC1(C)C2CCC1(C)C(OCCNCCOC(=O)Nc1ccccc1)C2` (stereo not given)?
A: AC50 [5]: 27.5 µM (active); AC50 [6]: 8.49 µM (active); AC50 [7]: 8.26 µM (active); AC50 [8]: 27.6 µM (active)

Q: What does the source list for `O=S(=O)(O)c1cc(S(=O)(=O)O)c2cc(/N=N/c3ccc(/N=N/c4ccc(/C=C/c5ccc(/N=[N+](/[O-])c6ccc(/C=C/c7ccc(/N=N/c8ccc(/N=N/c9ccc%10cc(S(=O)(=O)O)cc(S(=O)(=O)O)c%10c9)cc8)cc7S(=O)(=O)O)c(S(=O)(=O)O)c6)cc5S(=O)(=O)O)c(S(=O)(=O)O)c4)cc3)ccc2c1`?
A: GI50 [3]: > 95.1 µM (inactive); GI50 [4]: 14.7 µM (inactive)

Q: With `COC(=O)c1ccc(CSc2nc3ccccc3o2)cc1` as the molecule, how does the IC50 [9] read?
A: The IC50 was 41.7 µM (active).

Q: For `Nc1nc(N)c2cc(CNc3ccc(C(=O)NC(CC(=O)O)C(=O)O)c(Cl)c3)ccc2n1` (stereo not given), which GI50 [2] is on record?
A: Its GI50 is < 0.01 µM (active).

Q: What about the GI50 [3] of the same molecule?
A: The GI50 was 0.014 µM (active).

Q: And the GI50 [4]?
A: Its GI50 is < 0.01 µM (active).

Q: With `O=C(O)c1ccc(S(=O)(=O)c2ccccc2)cc1` as the molecule, how does the IC50 [9] read?
A: Its IC50 is > 100 µM (inactive).

Q: For `CC1(C(=O)N/N=C/c2cc3c(cc2Br)OCO3)CC1(Br)Br` (stereo not given), which AC50 [5] is on record?
A: The AC50 was 15.2 µM (active).

Q: And the AC50 [6]?
A: Its AC50 is 3.9 µM (active).

Q: And the AC50 [7]?
A: The AC50 was 2.59 µM (active).

Q: And the AC50 [8]?
A: The AC50 was 9.4 µM (active).

Q: Which AC50 [5] does the source give for `O=C(Cc1ccc(Cl)cc1Cl)Nc1ccncc1` here?
A: Its AC50 is 9.95 µM (active).

Q: And the AC50 [10]?
A: The AC50 was 6.34 µM (active).

Q: What about the AC50 [11] of the same molecule?
A: The AC50 was 42.9 µM (active).

Q: And the AC50 [12]?
A: The AC50 was 2.56 µM (active).

Q: And the IC50 [13]?
A: The IC50 was 3.6 µM (active).

Q: For `Cc1ccc([N+](=O)[O-])cc1NC(=O)CCc1ccccc1`, which IC50 [14] is on record?
A: The IC50 was 14 µM (active).

Q: And the IC50 [15]?
A: Its IC50 is 17.5 µM (active).

Q: Which IC50 [14] does the source give for `Cc1cc(C)c(C(=O)COC(=O)c2cc([N+](=O)[O-])ccc2NCCO)cc1C` here?
A: Its IC50 is 8.07 µM (active).

Q: What about the IC50 [15] of the same molecule?
A: Its IC50 is 13.3 µM (active).

Q: Which AC50 [5] does the source give for `COc1ccc(OCC(=O)Nc2ccccc2N2CCCCC2)cc1` here?
A: The AC50 was 33.4 µM (active).

Q: And the IC50 [16]?
A: Its IC50 is > 80 µM (inactive).
